Where a name gives a salt, the structure may show the parent alone.
These compounds were tested against T1, Human recombinant full-length MNK1 protein (Homo sapiens, UniProt Q9BUB5) (assay: MNK1 inhibitory activity assay (ADP-Glo in vitro kinase assay)). Conditions: 10 concentration points.
T1 construct: Human recombinant full-length MNK1 protein; purchased Thermo PR9138A
Type: biochemical
Method: MNK1 Inhibitory Activity Assay: Evaluation of the effects of compounds of the invention on […] (MNK1) activity using in vitro kinase assays. The experimental methods are summarized as follows: The in vitro activity of MNK1 was determined by measuring the level of ADP produced in the kinase reaction using the ADP-Glo Kinase Assay Kit. The reaction buffer consisted of the following components: 50 mM HEPES, pH 7.5, 10 mM MgCl2, 1 mM EGTA, 0.01% Brij35. Human recombinant full-length MNK1 protein (Thermo, Cat. No. PR9138A) was diluted with a reaction buffer to a 3.13 ng/uL kinase solution. The substrate reaction solution consisted of a substrate diluted to 0.75 mg/ml in reaction buffer ([…], available from […] Domestic Company), 2250 uM ATP, the ADP-Glo reagent and kinase assay solution from Promega kit (Promega, V9102). […] If the compound IC50 value is very low, the initial concentration of the compound can be lowered. To a 384-well assay plate (Thermo, Cat. No. 264706) were added 1 uL of compound solution and 2 uL of MNK1 kinase solution. The mixture was mixed well and incubated for 30 minutes at room temperature; then 2 uL of substrate reaction solution was added, the reaction mixture was incubated for 120 minutes at room temperature. The reaction was terminated after an equal volume of 5uLADP-Glo solution was added, and the remaining ATP was completely consumed. After mixing for 60 minutes at room temperature, 10 ul of the kinase assay solution was added, and the mixture was uniformly mixed, and allowed to stand at room temperature for 40 minutes in the dark. The detection solution converts ADP into new ATP through coupled luciferase/luciferin, and ATP is converted into optical signal by Ultr-GloTM luciferase, which can be detected by Envision. The intensity of the light signal is proportional correlated with the amount of ADP produced in the kinase reaction, therefore, the activity of MNK1 kinase can be determined. In this experiment, the group without protein was used as a negative control (100% inhibition). The group with protein but without compounds was used as a positive control (0% inhibition).

T1 sequence (Q9BUB5 whole entry): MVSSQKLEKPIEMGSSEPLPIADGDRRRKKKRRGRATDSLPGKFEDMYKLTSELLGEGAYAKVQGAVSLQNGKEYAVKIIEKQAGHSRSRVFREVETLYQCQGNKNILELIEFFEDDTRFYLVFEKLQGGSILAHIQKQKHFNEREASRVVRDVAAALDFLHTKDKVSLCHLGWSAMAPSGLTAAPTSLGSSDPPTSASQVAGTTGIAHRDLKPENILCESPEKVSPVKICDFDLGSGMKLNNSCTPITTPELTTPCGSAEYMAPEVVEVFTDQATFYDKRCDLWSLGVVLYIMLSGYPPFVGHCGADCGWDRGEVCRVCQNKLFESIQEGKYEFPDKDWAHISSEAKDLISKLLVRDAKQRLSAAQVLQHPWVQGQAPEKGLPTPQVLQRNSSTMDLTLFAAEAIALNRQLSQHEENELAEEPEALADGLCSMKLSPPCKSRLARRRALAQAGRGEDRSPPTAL

`COc1cc2c(cnn2C(=O)OC(C)(C)C)cc1Nc1cc(NC(C)=O)ncn1` [Compound 1, 1-tert-Butoxycarbonyl-5-(6-acetylaminopyrimidin-4-ylamino)-6-methoxyindazole] and `COc1cc2c(cnn2C(=O)OC(C)(C)C)cc1Nc1cc(NC(=O)C2CC2)ncn1` [Compound 3, 1-tert-Butoxycarbonyl-5-(6-cyclopropionamidopyrimidin-4-ylamino)-6-methoxyindazole] are within 1.5-fold of each other in IC50: 15.5 nM for the first, 11.3 nM for the second.

`COc1cc2[nH]ncc2cc1Nc1cc(NC(C)=O)ncn1` [Compound 2, 5-(6-Acetylaminopyrimidin-4-ylamino)-6-methoxy-1H-indazole] and `COc1cc2[nH]ncc2cc1Nc1cc(NC(=O)C(C)C)ncn1` [Compound 19, N-(6-((6-Methoxy-1H-indazol-5-yl)amino)pyrimidin-4-yl)isobutyramide] are within 1.5-fold of each other in IC50: 59.5 nM for the first, 45 nM for the second.

Compared with `COc1cc2c(cnn2C)cc1Nc1cc(NC(=O)C2CC2)ncn1` [Compound 5, 5-(6-Cyclopropionamidopyrimidin-4-ylamino)-6-methoxyl-methylindazole formate], `COC(=O)n1ncc2cc(Nc3cc(NC(=O)C4CC4)ncn3)c(OC)cc21` [Compound 17, 1-Methoxyacyl-5-(6-cyclopropionamidopyrimidin-4-ylamino)-6-methoxyindazole] is 21-fold lower in IC50: 585 nM for the first, 27.9 nM for the second.

Going from `CCOc1cc2[nH]ncc2cc1Nc1cc(NC(=O)C2CC2)ncn1` [Compound 6, 5-(6-Cyclopropionamidopyrimidin-4-ylamino)-6-ethoxy-1H-indazole] to `CC(C)Oc1cc2[nH]ncc2cc1Nc1cc(NC(=O)C2CC2)ncn1` [Compound 7, 5-(6-cyclopropionamidopyrimidin-4-ylamino)-6-isopropoxy-1H-indazole formate], the IC50 rises from 29.8 nM to 44.9 nM (1.5-fold). The first is the more potent here.

First: COc1cc2c(cnn2C(=O)C2CCCCC2)cc1Nc1cc(NC(=O)C2CC2)ncn1 [Compound 8, 1-Cyclohexanoyl-5-(6-cyclopropionamidopyrimidin-4-ylamino)-6-methoxyindazole]
Second: COc1cc2c(cnn2C(=O)C2CC2)cc1Nc1cc(NC(=O)C2CC2)ncn1 [Compound 14, 1-Cyclopropanoyl-5-(6-cyclopropionamidopyrimidin-4-ylamino)-6-methoxyindazole]
The IC50 of the first is 17-fold lower: 64.1 nM for the first, 1110 nM for the second.

Compared with `COc1cc2[nH]ncc2cc1Nc1cc(N)ncn1` [Compound 9, 5-(6-aminopyrimidin-4-ylamino)-6-methoxy-1H-indazole], `CNc1cc(Nc2cc3cn[nH]c3cc2OC)ncn1` [Compound 30, 5-(6-Methylaminopyrimidin-4-ylamino)-6-methoxy-1H-indazole] is 2.1-fold lower in IC50: 294 nM for the first, 141 nM for the second. The second is the more potent here.

First: COc1cc2[nH]ncc2cc1Nc1cc(NC(=O)c2ccccc2)ncn1 [Compound 10, 5-(6-benzoylaminopyrimidin-4-ylamino)-6-methoxy-1H-indazole]
Second: COc1cc2[nH]ncc2cc1Nc1cc(NC(=O)c2ccccn2)ncn1 [Compound 11, 5-(6-(2-Pyridine) formylaminopyrimidin-4-ylamino)-6-methoxy-1H-indazole]
The IC50 of the first is 22-fold lower: 23.8 nM for the first, 532 nM for the second.

First: COc1cc2[nH]ncc2cc1Nc1cc(NC(=O)C(C)(C)C)ncn1 [Compound 12, 5-(6-Pivaloylaminopyrimidin-4-ylamino)-6-methoxy-1H-indazole]
Second: COc1cc2[nH]ncc2cc1Nc1cc(NC2CC2)ncn1 [Compound 31, 5-(6-Cyclopropylaminopyrimidin-4-ylamino)-6-methoxy-1H-indazole formate]
The IC50 of the first is 5.8-fold higher: 729 nM for the first, 126 nM for the second. The second is the more potent here.

First: COc1cc2c(cnn2C(=O)C(C)C)cc1Nc1cc(NC(=O)C2CC2)ncn1 [Compound 13, 1-Isobutyryl-5-(6-cyclopropionamidopyrimidin-4-ylamino)-6-methoxyindazole]
Second: CCOC(=O)n1ncc2cc(Nc3cc(NC(=O)C4CC4)ncn3)c(OC)cc21 [Compound 18, 1-Ethoxyacyl-5-(6-cyclopropionamidopyrimidin-4-ylamino)-6-methoxyindazole]
The IC50 of the first is 21-fold higher: 225 nM for the first, 10.5 nM for the second.

`COc1cc2nn(C(=O)C3CC3)cc2cc1Nc1cc(NC(=O)C2CC2)ncn1` [Compound 15, 2-Cyclopropanoyl-5-(6-cyclopropionamidopyrimidin-4-ylamino)-6-methoxyindazole] and `COc1cc2[nH]ncc2cc1Nc1cc(Nc2ccncn2)ncn1` [Compound 22, 5-(6-(pyrimidin-4-ylamino)pyrimidin-4-ylamino)-6-methoxy-1H-indazole formate] are within 1.5-fold of each other in IC50: 21 nM for the first, 23.3 nM for the second.

Compared with `COc1cc2[nH]ncc2cc1Nc1cc(Nc2ccccn2)ncn1` [Compound 20, 5-(6-(Pyridin-2-ylamino)pyrimidin-4-ylamino)-6-methoxy-1H-indazole formate], `COc1cc2[nH]ncc2cc1Nc1cc(Nc2cc(Cl)ccn2)ncn1` [Compound 21, 5-(6-((4-Chloropyridin-2-yl)amino)pyrimidin-4-ylamino)-6-methoxy-1H-indazole] is 2.7-fold higher in IC50: 29.2 nM for the first, 78.2 nM for the second. The first is the more potent here.

`COc1cc2[nH]ncc2cc1Nc1cc(Nc2cccc(Cl)n2)ncn1` [Compound 23, 5-(6-((6-Chloropyridin-2-yl)amino)pyrimidin-4-ylamino)-6-methoxy-1H-indazole] and `COc1cc2[nH]ncc2cc1Nc1cc(Nc2ccc(Cl)cn2)ncn1` [Compound 24, 5-(6-((5-Chloropyridin-2-yl)amino)pyrimidin-4-ylamino)-6-methoxy-1H-indazole formate] are within 1.5-fold of each other in IC50: 31.3 nM for the first, 42.2 nM for the second.

`COc1cc2[nH]ncc2cc1Nc1cc(Nc2cc(C(F)(F)F)ccn2)ncn1` [Compound 25, 5-(6-((4-(Trifluoromethyl)pyridin-2-yl)amino)pyrimidin-4-ylamino)-6-methoxy-1H-indazole] and `COc1cc2[nH]ncc2cc1Nc1cc(Nc2cnccn2)ncn1` [Compound 29, 5-(6-(Pyrazin-2-ylamino)pyrimidin-4-ylamino)-6-methoxy-1H-indazole] are within 1.5-fold of each other in IC50: 40 nM for the first, 57.9 nM for the second.

`COc1cc2[nH]ncc2cc1Nc1cc(Nc2ncc(Cl)cn2)ncn1` [Compound 26, 5-(6-((5-chloropyrimidin-2-yl)amino)pyrimidin-4-ylamino)-6-methoxy-1H-indazole] and `COc1cc2[nH]ncc2cc1Nc1cc(Nc2ncccn2)ncn1` [Compound 27, 5-(6-(Pyrimidin-2-ylamino)pyrimidin-4-ylamino)-6-methoxy-1H-indazole] are within 1.5-fold of each other in IC50: 36.6 nM for the first, 43.8 nM for the second.

Compared with `COc1cc2[nH]ncc2cc1Nc1cc(Nc2ncccc2Cl)ncn1` [Compound 28, 5-(6-((3-Chloropyridin-2-yl)amino)pyrimidin-4-ylamino)-6-methoxy-1H-indazole], `COc1cc2[nH]ncc2cc1Nc1ncnc(N)c1C(=O)O` [Compound 39, 5-((6-Amino-5-carbonylpyrimidin-4-yl)amino)-6-methoxy-1H-indazole formate] is 41-fold lower in IC50: 539 nM for the first, 13 nM for the second.

Going from `COc1cc2[nH]ncc2cc1Nc1ncnc(N)c1C1=CCC(C(=O)O)CC1` (stereo not drawn) [Compound 32, 5-((6-Amino-5-cyclohex-3-ene-1-carboxypyrimidin-4-yl)amino)-6-methoxy-1H-indazole hydrochloride] to `COc1cc2[nH]ncc2cc1Nc1ncnc(N)c1C1=CCC(C(=O)N(C)C)CC1` (stereo not drawn) [Compound 34, 4-(4-Amino-6-((6-methoxy-1H-indazol-5-yl)amino)pyrimidin-5-yl)-N,N-dimethylcyclohex-3-ene-1-carboxamide formate], the IC50 rises from 166 nM to 450 nM (2.7-fold). The first is the more potent here.

Going from `COc1cc2[nH]ncc2cc1Nc1ncnc(N)c1C1=CCC(C(=O)N2CCN(C)CC2)CC1` (stereo not drawn) [Compound 33, 5-((6-Amino-5-cyclohex-3-en-1-yl (4-methylpiperazin-1-yl)methanylpyrimidin-4-yl)amino)-6-methoxy-1H-indazole formate] to `COc1cc2[nH]ncc2cc1Nc1ncnc(N)c1C(=O)N1CCOCC1` [Compound 41], the IC50 rises from 94.7 nM to 1050 nM (11-fold). The first is the more potent here.

`CCOC(=O)c1c(N)ncnc1Nc1cc2cnn(C(=O)OC(C)(C)C)c2cc1OC` [Compound 35, 1-tert-Butoxycarbonyl-5-((6-amino-5-ethoxycarbonylpyrimidin-4-yl)amino)-6-methoxyindazole] and `CCOC(=O)c1c(NC(C)=O)ncnc1Nc1cc2cnn(C(=O)OC(C)(C)C)c2cc1OC` [Compound 37, 1-tert-Butoxycarbonyl-5-((6-(acetylamino)-5-ethoxycarbonylpyrimidin-4-yl)amino)-6-methoxyindazole] are within 1.5-fold of each other in IC50: 32.5 nM for the first, 23.8 nM for the second.

First: CCOC(=O)c1c(N)ncnc1Nc1cc2cn[nH]c2cc1OC [Compound 36, 5-((6-Amino-5-ethoxycarbonylpyrimidin-4-yl)amino)-6-methoxy-1H-indazole dicarboxylate]
Second: CCOC(=O)c1c(NC(C)=O)ncnc1Nc1cc2cn[nH]c2cc1OC [Compound 38, 5-((6-(Acetylamino)-5-ethoxycarbonylpyrimidin-4-yl)amino)-6-methoxy-1H-indazole]
The IC50 of the first is 1.5-fold lower: 7.8 nM for the first, 11.9 nM for the second.

`COc1cc2[nH]ncc2cc1Nc1ncnc(N)c1C(=O)N(C)C` [Compound 40] was tested, and the IC50 was 1140 nM.

From patent publication US20220289719A1, “HETEROCYCLIC COMPOUNDS AS MNK INHIBITORS” (NANJING INNOCARE PHARMA TECH CO., LTD., priority 2017, published 2022)
